One test relates to C57Bl/6 mice. Briefly: SREBP-2, LDLR and LDL in vivo in mice. Details: species or system mouse. As to conditions: 20 mg/kg/day intraperitoneally, two weeks. On the procedure:
To study the effect of INV-75 on SREBP activity in vivo experiment was performed as follows: C57bl/6 mice (6/group) were intraperitoneally injected with INV-75 (20 mg/kg/day, for two weeks). The binding activity of SREBP2 in nuclear proteins of liver homogenates was measured by electrophoretic migration shift assay (EMSA). Simultaneously multiple genes involved in cholesterol synthesis and regulation, apolipoprotein gene expression and expression of PCSK9 (Proprotein convertase subtilisin/kexin type 9) were also studied in the liver. PCSK9 is known to regulate LDL receptor expression by binding to the epidermal growth factor-like repeat A (EGF-A) domain of the low-density lipoprotein receptor (LDLR), inducing LDLR degradation.

For another test, the system named is Patients. Nature of the test: Treatment of dyslipidemia in diabetic patients (Example 25). As to conditions: oral, 12 months. Format: in vivo, human. An excerpt: Individuals with Type I and Type II diabetes are at risk for future cardiovascular events such as heart attacks, strokes and kidney disease. These individuals often have abnormalities in lipids such as elevations in triglycerides and VLDL cholesterol. They are on treatments such as hypolipidemic drug therapy such as statins and fibrates (Gemfibrozil or Fenofibrate) to lover cholesterol levels in conjunction with glycemia lowering strategies such as Insulin, PPAR γ agents, Metformin or sulfonylurea therapy. In addition to these treatments they will also receive an acceptable dose of a composition comprising a compound of the present invention in an acceptable carrier orally chronically for durations in excess of 12 months. In one study, (3,4-methylenedioxy phenyl acetate (INV 73); 3,4-methylenedioxy-6-nitrophenol (INV 74); 3,4-methylenedioxy-6-nitrophenyl acetate (INV 75); are administered to these individuals. The patients undergo lipid measurements at baseline and at the end of treatment for a 12 month duration. At the end of 12 months of treatment, there is lowering of VLDL cholesterol and a decrease in triglycerides.

Test [1] relates to Watanabe Heritable Hyperlipidemic Rabbits (WHHL). Briefly: Immunohistochemistry and staining of WHHL rabbit aorta. Format: in vivo. The protocol:
Immunohistochemical staining was performed to assess inflammatory content using the primary antibodies (1:200 concentration) and a detection system (Immunoperoxidase Secondary Detection System; Chemicon International, Temecula, Calif.), and quantified with software (NIH Image) after digitization of the images with a camera system (Zeiss Axioskop with Spot I digital camera). Antibodies against CD68 were purchased from Santa Cruz Biotechnology Incorporated (Santa Cruz, Calif.). A polyclonal anti-α-Actin antibody was obtained from Upstate Cell Signaling Solutions (Lake Placid, N.Y.). T cell receptor β antibody was obtained from Biolegend (San Diego, Calif.). To quantify the staining, the mean density of 4 negative control (no primary antibody) sections was set as the threshold, and positive area was acquired by software. Results were finally normalized by the area subtended by the external elastic lamina to the luminal interface or the intimal-medial volume. The effects of INV-75 on macrophages and smooth muscle cells in comparison to control group were evaluated by CD68 and α-actin immunohistochemistry, respectively. INV-75 decreased the number of macrophages vs. controls and summary of whole groups is represented by bar diagram in FIG. 10 (n=4-5 animals/group). *p<0.05 vs control animals using unpaired t test). […] INV-75 increased the smooth muscle content (% of total area) vs controls and the combined results were represented as a bar diagram n=5/group (n=number of animals used per group). *p<0.05 vs control animals.
Lipid deposition in aorta was identified after total 14 weeks of treatment with drug, rabbits were sacrificed and abdominal aortas were fixed in 4% paraformaldehyde. The lipid deposition in aortic wall was then visualized by oil red staining. […] (FIG. 13).

The test system of test [2] is New Zealand White rabbits. Nature of the test: MRI assessment of atherosclerosis in balloon denuded NZW rabbits. It counts as in vivo, rabbit. The protocol: Animal Model: 15 male New Zealand White rabbits (Charles River, Mass.) were fed with high fat diet (HFD) (Harlan Teklad rabbit diet with 0.5% cholesterol, TD 87251). After 4 weeks of high fat diet, rabbits were randomized into three different treatment groups, normal control (n=5), lipoic acid (100 mg/kg/day) (n=5), INV 70-65 (100 mg/kg/day) (n=5). These drugs were administered to the animals via their chow by mixing the drugs with the high fat diet. A fixed amount of chow and drugs admixed in the chow were fed to all animals every day after carefully calculating food intake in each rabbit. Drugs were dissolved in 100% ethanol and sprayed onto the diet and kept under vacuum to let ethanol evaporate overnight. Two (2) weeks after drug or control admixed HFD, all rabbits underwent aortic balloon denudation surgeries followed by 12 weeks of continued administration of drug or controls admixed with HFD. FIG. 29 provides an outline of the experimental design.
MRI experiments were conducted at two time points: 1 week and 12 weeks after the balloon denudation procedure (FIG. 29). […] MR images were analyzed using a Siemens Leonardo Workstation (Siemens Healthcare Inc. Germany).
To assess the different rates of atherosclerosis plaque progression for each rabbit group, the aortic wall was identified in the pre-contrast images at both MRI time points. […] To account for the variable number of slices, for each rabbit a normalized aortic wall volume was calculated.
To assess plaque neovasculature progression in the different treatment groups, only the 12 weeks post balloon denudation MR images were used. […] The signal to noise ratio (SNR) for each slice was calculated as the mean signal obtained from the vessel wall divided by the standard deviation of the noise from a region outside the body. A ratio of the SNR enhancement for each rabbit was obtained by dividing the post and pre contrast calculated SNRs.

On to `CC(=O)Oc1cc2c(cc1[N+](=O)[O-])OCO2` [INV-75, 3,4-methylenedioxy-6-nitrophenyl acetate], for which, in the test with C57Bl/6 mice, the LDL entry was “significantly lowered”; the “LDL receptor expression in liver (real-time RT-PCR, western blot)” value is “increase”; the “SREBP2 activation in liver (EMSA)” value is reported as “dramatically activated”; the other lipoproteins entry is listed as “not other lipoproteins”. In addition, in the test with Patients, the VLDL cholesterol entry is reported as “lowering” and the triglycerides result is “decrease”. Also, in test [1] (WHHL abdominal aorta, vs control group), the “collagen content (Masson's trichrome)” value is given as “reduction”. Further, the “lipid component (Oil Red O)” value in test [1] (WHHL abdominal aorta, vs controls) is listed as “decreased”. Besides, in test [1] (WHHL aorta, vs controls), the “number of macrophages (CD68)” value is “decreased” and the “smooth muscle content (% of total area, α-actin)” value is “increased”.
In the case of `O=C(CCCCC1CCSS1)Oc1ccc2c(c1)OCO2` (stereo not drawn) [INV-7065, 3,4-Methylenedioxy phenyl lipoate], in test [2] (compared to controls and lipoic acid treatment), the “gadolinium enhancement of the aorta” value is reported as “reduction”. Besides, in test [2] (high fat diet, 100 mg/kg/day, 12 weeks), the “plaque burden by MRI” value is recorded as “marked attenuation”.

(Values after patent US8198317B2, “Methylenedioxy phenolic compounds and their use to treat disease” (The Ohio State University Research Foundation, priority 2008, dated 2012).)
